Assay results: patent US9938322B2, “β-hairpin peptidomimetics” (priority 2013, dated 2018)
Where a SMILES comes first, the peptide text is derived from it. [ ]: non-standard residue; d: D form. The star is where a group is joined. cisHyp = O=C(O)[C@@H]1C[C@H](O)CN1; Cha = N[C@@H](CC1CCCCC1)C(=O)O; Chg = N[C@H](C(=O)O)C1CCCCC1; Tle = CC(C)(C)[C@H](N)C(=O)O; dDab = NCC[C@@H](N)C(=O)O; hSer = N[C@@H](CCO)C(=O)O; Orn = NCCC[C@H](N)C(=O)O; Api = NC1(C(=O)O)CCNCC1; Dab = NCC[C@H](N)C(=O)O; Dap = NC[C@H](N)C(=O)O; Bn = c1ccc(C*)cc1

These compounds were tested on human red blood cells (hRBC) (assay: Hemolysis of human red blood cells). Conditions: red cells of human, 1 h, 100.
Format: cell-based
Summary of the method: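 Washed fresh human erythrocytes (20% v/v, about 0.9×10^9 cells/ml final) incubated with peptide at 100 μg/ml for 1 h at 37° C with shaking. Supernatant OD540 read; hemolysis expressed relative to 2.5% Triton X-100 (100%) and PBS with 0.001% acetic acid (0%).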

Question: `CC(C)C[C@@H]1NC(=O)[C@@H]2CCCN2C(=O)[C@H]2CCCN2C(=O)[C@H](CO)NC(=O)[C@H](C)NC(=O)[C@H](C(C)(C)C)NC(=O)[C@H](CCN)NC(=O)[C@H](Cc2c[nH]c3ccccc23)NC(=O)[C@H](CCN)NC(=O)[C@@H](CCN)NC(=O)[C@H](CCCCN)NC(=O)[C@H](CCN)NC(=O)[C@H](Cc2ccc(O)cc2)NC(=O)[C@H](CO)NC1=O` [compound 25] (cyclo(LSY[Dab]K[dDab][Dab]W[Dab][Tle]AS[dP]P)) was tested. Which “Hemolysis at 100 μg/ml” value did it give?
Answer: The value was 1%.

Question: `C[C@@H]1NC(=O)[C@H](C(C)(C)C)NC(=O)[C@H](CCN)NC(=O)[C@H](Cc2c[nH]c3ccccc23)NC(=O)[C@H](CCN)NC(=O)C2(CCNCC2)NC(=O)[C@H](CCCN)NC(=O)[C@H](CCN)NC(=O)[C@H](CC2CCCCC2)NC(=O)[C@H](CN)NC(=O)[C@H](Cc2c[nH]c3ccccc23)NC(=O)[C@@H]2CCCN2C(=O)[C@H]2CCCN2C(=O)[C@H](CO)NC1=O` [Ex. 62] (cyclo(W[Dap][Cha][Dab][Orn][Api][Dab]W[Dab][Tle]AS[dP]P)) was tested. Which “Hemolysis at 100 μg/ml” value did it give?
Answer: Its value is 1%.

Question: `C[C@@H]1NC(=O)[C@H](Cc2c[nH]c3ccccc23)NC(=O)[C@@H]2C[C@H](OCc3ccccc3)CN2C(=O)[C@H]2CCCN2C(=O)[C@H](CO)NC(=O)[C@H](C)NC(=O)[C@H](C(C)(C)C)NC(=O)[C@H](CCN)NC(=O)[C@H](Cc2c[nH]c3ccccc23)NC(=O)[C@H](CCN)NC(=O)[C@H](CCN)NC(=O)[C@H](CCCN)NC(=O)[C@H](CCN)NC(=O)[C@H](CC2CCCCC2)NC1=O` [compound 64] (cyclo(WA[Cha][Dab][Orn][Dab][Dab]W[Dab][Tle]AS[dP][cisHyp](Bn))) was tested. Which “Hemolysis at 100 μg/ml” value did it give?
Answer: Its value is 3%.

Question: For `C[C@@H]1NC(=O)[C@H](Cc2c[nH]c3ccccc23)NC(=O)[C@@H]2CCCN2C(=O)[C@H]2CCCN2C(=O)[C@H](CO)NC(=O)[C@H](C)NC(=O)[C@H](C(C)(C)C)NC(=O)[C@H](CCN)NC(=O)[C@H](Cc2c[nH]c3ccccc23)NC(=O)[C@H](CCN)NC(=O)[C@@H](CCN)NC(=O)[C@H](CCCCN)NC(=O)[C@H](CCN)NC(=O)[C@H](Cc2ccc(O)cc2)NC1=O` [compound 78] (cyclo(WAY[Dab]K[dDab][Dab]W[Dab][Tle]AS[dP]P)), which “Hemolysis at 100 μg/ml” value is on record?
Answer: The value was 1%.

Question: How did the “Hemolysis at 100 μg/ml” value turn out when `C[C@@H]1NC(=O)[C@H](C(C)(C)C)NC(=O)[C@H](CCN)NC(=O)[C@H](Cc2c[nH]c3ccccc23)NC(=O)[C@H](CCN)NC(=O)[C@@H](CCN)NC(=O)[C@H](CCCN)NC(=O)[C@H](CCN)NC(=O)[C@H](Cc2ccc(O)cc2)NC(=O)[C@H](CO)NC(=O)[C@H](Cc2ccc(O)cc2)NC(=O)[C@@H]2CCCN2C(=O)[C@H]2CCCN2C(=O)[C@H](Cc2ccc(O)cc2)NC1=O` [compound 153] (cyclo(YSY[Dab][Orn][dDab][Dab]W[Dab][Tle]AY[dP]P)) was run?
Answer: Its value is 2%.

Question: With `CC(C)[C@@H]1NC(=O)[C@@H]2CCCN2C(=O)[C@H]2CCCN2C(=O)[C@H](CO)NC(=O)[C@H](C)NC(=O)[C@H](C(C)(C)C)NC(=O)[C@H](CCN)NC(=O)[C@H](Cc2c[nH]c3ccccc23)NC(=O)[C@H](CCN)NC(=O)[C@H](CCN)NC(=O)[C@H](CCCN)NC(=O)[C@H](CCN)NC(=O)[C@H](Cc2ccc(O)cc2)NC(=O)[C@H](CO)NC1=O` [compound 49] (cyclo(VSY[Dab][Orn][Dab][Dab]W[Dab][Tle]AS[dP]P)) as the compound, how does the “Hemolysis at 100 μg/ml” value read?
Answer: Its value is 1%.

Question: `C[C@@H]1NC(=O)[C@H](CC2CCCCC2)NC(=O)[C@H](CCN)NC(=O)[C@H](Cc2c[nH]c3ccccc23)NC(=O)[C@H](CCN)NC(=O)[C@@H](CCN)NC(=O)[C@H](CCCN)NC(=O)[C@H](CCN)NC(=O)[C@H](Cc2ccc(O)cc2)NC(=O)[C@H](CO)NC(=O)[C@H](Cc2c[nH]c3ccccc23)NC(=O)[C@@H]2CCCN2C(=O)[C@H]2CCCN2C(=O)[C@H](CO)NC1=O` [compound 70] (cyclo(WSY[Dab][Orn][dDab][Dab]W[Dab][Cha]AS[dP]P)) was tested. Which “Hemolysis at 100 μg/ml” value did it give?
Answer: Its value is 5%.

Question: For `CC(C)C[C@@H]1NC(=O)[C@@H]2CCCN2C(=O)[C@H]2CCCN2C(=O)[C@H](CO)NC(=O)[C@H](C)NC(=O)[C@H](C(C)(C)C)NC(=O)[C@H](CCCCN)NC(=O)[C@H](Cc2c[nH]c3ccccc23)NC(=O)[C@H](CCN)NC(=O)[C@@H](CCN)NC(=O)[C@H](CCCN)NC(=O)[C@H](CCN)NC(=O)[C@H](Cc2ccc(O)cc2)NC(=O)[C@H](CO)NC1=O` [compound 100] (cyclo(LSY[Dab][Orn][dDab][Dab]WK[Tle]AS[dP]P)), which “Hemolysis at 100 μg/ml” value is on record?
Answer: The value was 1%.

Question: Which “Hemolysis at 100 μg/ml” value does the source give for `C[C@@H]1NC(=O)[C@H](C(C)(C)C)NC(=O)[C@H](CCN)NC(=O)[C@H](Cc2c[nH]c3ccccc23)NC(=O)[C@H](CCN)NC(=O)[C@@H](CCN)NC(=O)[C@H](CCCN)NC(=O)[C@H](CCN)NC(=O)[C@H](Cc2ccc(O)cc2)NC(=O)[C@H](CO)NC(=O)[C@H](Cc2ccc(O)cc2)NC(=O)[C@@H]2CCCN2C(=O)[C@H]2CCCN2C(=O)[C@H](CO)NC1=O` [compound 21] (cyclo(YSY[Dab][Orn][dDab][Dab]W[Dab][Tle]AS[dP]P)) here?
Answer: The value was 1%.

Question: How did the “Hemolysis at 100 μg/ml” value turn out when `CC(C)C[C@@H]1NC(=O)[C@@H]2CCCN2C(=O)[C@H]2CCCN2C(=O)[C@H](CO)NC(=O)[C@H](C)NC(=O)[C@H](Cc2ccc(O)cc2)NC(=O)[C@H](CCN)NC(=O)[C@H](Cc2c[nH]c3ccccc23)NC(=O)[C@H](CCN)NC(=O)[C@@H](CCN)NC(=O)[C@H](CCCN)NC(=O)[C@H](CCN)NC(=O)[C@H](Cc2ccc(O)cc2)NC(=O)[C@H](CO)NC1=O` [compound 31] (cyclo(LSY[Dab][Orn][dDab][Dab]W[Dab]YAS[dP]P)) was run?
Answer: The value was 1%.

Question: Which “Hemolysis at 100 μg/ml” value does the source give for `CC(C)C[C@@H]1NC(=O)[C@@H]2CCCN2C(=O)[C@H]2CCCN2C(=O)[C@H](CO)NC(=O)[C@H](C)NC(=O)[C@H](C(C)(C)C)NC(=O)[C@H](CCN)NC(=O)[C@H](Cc2c[nH]c3ccccc23)NC(=O)[C@H](CCN)NC(=O)[C@@H](CCN)NC(=O)[C@H](CCCN)NC(=O)[C@H](CCN)NC(=O)[C@H](Cc2ccccc2)NC(=O)[C@H](CO)NC1=O` [compound 28] (cyclo(LSF[Dab][Orn][dDab][Dab]W[Dab][Tle]AS[dP]P)) here?
Answer: Its value is 2%.

Question: How did the “Hemolysis at 100 μg/ml” value turn out when `C[C@@H]1NC(=O)[C@H](C(C)(C)C)NC(=O)[C@H](CCN)NC(=O)[C@H](Cc2c[nH]c3ccccc23)NC(=O)[C@H](CCN)NC(=O)[C@@H](CCN)NC(=O)[C@H](CCCN)NC(=O)[C@H](CCN)NC(=O)[C@H](CC2CCCCC2)NC(=O)[C@H](CCO)NC(=O)[C@H](Cc2c[nH]c3ccccc23)NC(=O)[C@@H]2CCCN2C(=O)[C@H]2CCCN2C(=O)[C@H](CO)NC1=O` [compound 18] (cyclo(W[hSer][Cha][Dab][Orn][dDab][Dab]W[Dab][Tle]AS[dP]P)) was run?
Answer: Its value is 3%.

Question: `CC(C)[C@@H]1NC(=O)[C@@H]2CCCN2C(=O)[C@H]2CCCN2C(=O)[C@H](CO)NC(=O)[C@H](C)NC(=O)[C@H](CC2CCCCC2)NC(=O)[C@H](CCN)NC(=O)[C@H](Cc2c[nH]c3ccccc23)NC(=O)[C@H](CCN)NC(=O)[C@@H](CCN)NC(=O)[C@H](CCCN)NC(=O)[C@H](CCN)NC(=O)[C@H](Cc2ccc(O)cc2)NC(=O)[C@H](CO)NC1=O` [compound 92] (cyclo(VSY[Dab][Orn][dDab][Dab]W[Dab][Cha]AS[dP]P)) was tested. Which “Hemolysis at 100 μg/ml” value did it give?
Answer: Its value is 5%.

Question: With `CC[C@H](C)[C@@H]1NC(=O)[C@H](CCN)NC(=O)[C@H](Cc2c[nH]c3ccccc23)NC(=O)[C@H](CCN)NC(=O)[C@@H](CCN)NC(=O)[C@H](CCCN)NC(=O)[C@H](CCN)NC(=O)[C@H](Cc2ccc(O)cc2)NC(=O)[C@H](CO)NC(=O)[C@H]([C@@H](C)CC)NC(=O)[C@@H]2CCCN2C(=O)[C@H]2CCCN2C(=O)[C@H](CO)NC(=O)[C@H](C)NC1=O` [compound 81] (cyclo(ISY[Dab][Orn][dDab][Dab]W[Dab]IAS[dP]P)) as the compound, how does the “Hemolysis at 100 μg/ml” value read?
Answer: The value was 1%.

Question: For `CC(C)C[C@@H]1NC(=O)[C@@H]2CCCN2C(=O)[C@H]2CCCN2C(=O)[C@H](CO)NC(=O)[C@H](CCN)NC(=O)[C@H](C(C)(C)C)NC(=O)[C@H](CCN)NC(=O)[C@H](Cc2c[nH]c3ccccc23)NC(=O)[C@H](CCN)NC(=O)[C@@H](CCN)NC(=O)[C@H](CCCN)NC(=O)[C@H](CCN)NC(=O)[C@H](Cc2ccc(O)cc2)NC(=O)[C@H]([C@@H](C)O)NC1=O` [compound 115] (cyclo(LTY[Dab][Orn][dDab][Dab]W[Dab][Tle][Dab]S[dP]P)), which “Hemolysis at 100 μg/ml” value is on record?
Answer: Its value is 0%.

Question: With `CC[C@H](C)[C@@H]1NC(=O)[C@@H]2CCCN2C(=O)[C@H]2CCCN2C(=O)[C@H](CO)NC(=O)[C@H](C)NC(=O)[C@H](C2CCCCC2)NC(=O)[C@H](CCN)NC(=O)[C@H](Cc2c[nH]c3ccccc23)NC(=O)[C@H](CCN)NC(=O)[C@@H](CCN)NC(=O)[C@H](CCCN)NC(=O)[C@H](CCN)NC(=O)[C@H](C(C)(C)C)NC(=O)[C@H](CO)NC1=O` [compound 136] (cyclo(IS[Tle][Dab][Orn][dDab][Dab]W[Dab][Chg]AS[dP]P)) as the compound, how does the “Hemolysis at 100 μg/ml” value read?
Answer: Its value is 5%.

Question: With `C[C@@H]1NC(=O)[C@H](C(C)(C)C)NC(=O)[C@H](CCN)NC(=O)[C@H](Cc2c[nH]c3ccccc23)NC(=O)[C@H](CCN)NC(=O)[C@@H](CCN)NC(=O)[C@H](CCCN)NC(=O)[C@H](CCN)NC(=O)[C@H](Cc2c[nH]c3ccccc23)NC(=O)[C@H](CN)NC(=O)[C@H](Cc2c[nH]c3ccccc23)NC(=O)[C@@H]2CCCN2C(=O)[C@H]2CCCN2C(=O)[C@H](CO)NC1=O` [compound 79] (cyclo(W[Dap]W[Dab][Orn][dDab][Dab]W[Dab][Tle]AS[dP]P)) as the compound, how does the “Hemolysis at 100 μg/ml” value read?
Answer: The value was 1%.
